Our source for the IC50 values is BindingDB's records for patent US8680132 (University of Michigan, 2014).

pIC50: −log10 of the molar value. Bounds are passed on as bounds.

For this assay, the target named is E3 ubiquitin-protein ligase Mdm2 (Homo sapiens, UniProt Q00987). Put plainly: Fluorescence-polarization Binding Assay. The note with it: pH 7.5.

In general, pIC50 refers to −log10 of the IC50, conventionally taken in molar units.

E3 ubiquitin-protein ligase Mdm2, sequence (Q00987 whole entry): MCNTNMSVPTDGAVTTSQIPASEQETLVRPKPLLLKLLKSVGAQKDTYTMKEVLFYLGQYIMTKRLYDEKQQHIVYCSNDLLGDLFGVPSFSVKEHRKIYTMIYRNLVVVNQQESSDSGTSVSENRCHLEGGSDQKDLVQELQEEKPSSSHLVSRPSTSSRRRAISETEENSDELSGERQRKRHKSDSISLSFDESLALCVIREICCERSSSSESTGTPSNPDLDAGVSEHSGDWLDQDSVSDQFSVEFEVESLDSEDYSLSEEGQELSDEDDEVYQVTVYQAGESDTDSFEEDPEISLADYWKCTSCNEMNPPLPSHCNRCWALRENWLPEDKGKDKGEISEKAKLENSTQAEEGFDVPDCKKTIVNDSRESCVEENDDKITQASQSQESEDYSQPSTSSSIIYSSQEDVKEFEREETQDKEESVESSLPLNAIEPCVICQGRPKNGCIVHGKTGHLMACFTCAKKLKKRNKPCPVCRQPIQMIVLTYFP

The compound `O=C(NCC[C@H](O)CO)[C@@H]1N[C@H](CC2CCCCC2)[C@]2(C(=O)Nc3cc(Cl)c(F)cc32)[C@H]1c1cccc(Cl)c1` gave a pIC50 of over 6.00.
